Source: patent publication US20250263437A1, “POLYPEPTIDE FOR REPAIRING SKIN WOUND OR MUCOSAL INJURY, AND APPLICATION THEREOF” (Sichuan Gooddoctor Panxi Pharmaceutical Co., Ltd., priority 2021, published 2025)
“Also recorded” adds a separate entry of the source. Where no end group is shown, it is not given here.

Key:
FGFR1 = FGFR1 (Homo sapiens, UniProt P11362); experiment: FGFR receptor binding assay: ultrafiltration/mass spectrometry affinity screening to FGFR1 protein target; details: ratio of lower-layer to upper-layer compound MS signal intensity; the greater the ratio, the stronger the affinity
Sequence of FGFR1 (P11362 22-822, species assumed): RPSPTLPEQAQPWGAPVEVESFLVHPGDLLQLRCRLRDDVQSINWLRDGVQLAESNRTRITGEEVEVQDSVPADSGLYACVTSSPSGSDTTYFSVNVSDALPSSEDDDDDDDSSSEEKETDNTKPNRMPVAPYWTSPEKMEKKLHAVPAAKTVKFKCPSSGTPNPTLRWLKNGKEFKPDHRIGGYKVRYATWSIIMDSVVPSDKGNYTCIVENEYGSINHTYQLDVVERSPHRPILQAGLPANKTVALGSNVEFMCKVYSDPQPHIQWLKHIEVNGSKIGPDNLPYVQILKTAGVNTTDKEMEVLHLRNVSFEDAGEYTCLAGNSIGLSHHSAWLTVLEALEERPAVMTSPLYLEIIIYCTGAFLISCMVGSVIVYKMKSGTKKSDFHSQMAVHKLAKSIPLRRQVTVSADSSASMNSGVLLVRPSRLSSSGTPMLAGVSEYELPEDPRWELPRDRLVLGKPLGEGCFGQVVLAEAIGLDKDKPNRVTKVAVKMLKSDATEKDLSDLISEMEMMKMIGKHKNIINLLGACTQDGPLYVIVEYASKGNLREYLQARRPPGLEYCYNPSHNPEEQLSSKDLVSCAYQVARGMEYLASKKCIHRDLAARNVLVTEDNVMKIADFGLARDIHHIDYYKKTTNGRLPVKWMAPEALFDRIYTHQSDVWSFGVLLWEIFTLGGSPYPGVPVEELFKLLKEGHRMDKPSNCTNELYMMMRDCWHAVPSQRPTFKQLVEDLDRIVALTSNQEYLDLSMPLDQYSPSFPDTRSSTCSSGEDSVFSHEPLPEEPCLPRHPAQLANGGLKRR
Experimental: The affinity of the polypeptide compound prepared by the present invention to FGFR1 was tested by using a control FGFR1 allosteric inhibitor (product number SSR128129E from Sigma) as a positive compound control.
Screening for the affinity to FGFR1 was as follows: FGFR1 solutions with an appropriate concentration were taken, the positive compound SSR128129E (Sigma) at an appropriate concentration and sample solutions of the inventive polypeptide compounds, as freeze-dried powders, dissolved in protein buffers were then respectively added. After incubation at room temperature for 50 min, ultrafiltration and screening were carried out to obtain various treated solutions. An appropriate volume of acetonitrile was added to each treated solution to precipitate a protein, the solution was then centrifuged, and the supernatant was taken and analyzed by mass spectrometry.
Affinity screening conditions: One-dimensional liquid-phase conditions were: chromatographic column; PolyLC chromatographic column, mobile phase A: KH2PO4, NaCl, pH 7.5, mobile phase B: acetonitrile, column temperature: 8° C., flow rate: 1 mL/min, and injection volume: appropriate; and two-dimensional liquid-phase conditions were: chromatographic column: BONUS RRHD, mobile phase A: 0.1% formic acid aqueous solution, mobile phase B: 0.1% formic acid in acetonitrile, column temperature: 60° C., flow rate: 0.3 mL/min, and injection volume: 40 uL. Gradient elution was used, i.e., 98% A (0-1 min), 98-10% A (1-6 min), 10% A (6-7.5 min), 10-98% A (7.5-8 min), and 98% A (8-9.5 min). Mass spectrometry conditions: Agilent 6530 Q-Tof, ESI ion source, voltage 3.5 KV, mass-to-charge ratio scanning range m/z=200-3000, acquisition mode: positive ion scanning, ion source temperature: 350° C., solvent removal temperature: 300° C., and nitrogen flow rate: 8 L/min.

HaCaT cells = experiment: Proliferation of HaCaT cells (CCK8); assay type: cell-based, human; details: 0.2-0.8 μg/mL; 24 h, 48 h and 72 h; 1% serum
Experimental: Experimental method: Immortalized human keratinocytes (HaCaT cells) was adjusted to a concentration of 1.0×10^5 to 5.0×10^5/mL for passaging, and they were cultured at 37° C. and 5% CO2 for 24-36 h for biological activity detection. The cells were digested with 0.25% trypsin for 5 min, 1640 whole blood culture medium, the volume of which was not less than 1 time of the volume of the trypsin, was added to stop digestion, a cell suspension was collected, centrifuged at 1000 RPM for 3 min, the supernatant was discarded, 2 mL of 1640 whole blood culture medium was added to suspend the cells, 20 μL of the cell suspension was taken and stained with AOPI, the concentration of cells in the suspension was then detected by a cell counter, the suspension was prepared to a concentration of 5×10^4/mL with 1640 culture medium containing serum at a concentration of 10% and inoculated into a 96-well cell culture plate, with 100 μL per well, i.e., 5000 cells/well, and the plate was cultured at 37° C. and 5% CO2 overnight.
After 24 h, the original culture medium was discarded, and 100 μL of polypeptide compound solutions with different concentrations prepared with 1640 culture medium containing serum at a concentration of 1% were added, such that the final concentrations of the polypeptide compounds to be tested were 0.2, 0.4 and 0.8 ug/mL, respectively. In addition, an EGF control group was prepared by adding 100 μL of a recombinant human epidermal growth factor (EGF) solution prepared with 1640 culture medium containing serum at a concentration of 1%, with the final concentration being 100 ng/ml. In the model control group, an equal volume of 1640 culture medium containing serum at a concentration of 1% was added. After culturing at 37° C. and 5% CO2 for 24 h, 48 h and 72 h, the proliferation of the HaCaT cell line was detected by means of CCK8 kit.

[1] = tested on: acute mechanical skin injury in rats; experiment: Healing effect on acute mechanical skin injury in rats; assay type: in vivo; details: for promoting wound healing (in words): 40 μg/cm^2; for wound healing rate, 5 days / wound healing rate, 10 days / wound healing rate, 14 days: polypeptide 40 μg/cm^2, Jinyintai 40 IU/cm^2, topical once daily, in % (unit assumed)
Experimental: SPF grade SD rats, weighing 180-230 g, were raised in respective clean sterilized cages, with water, feed and padding replacement given regularly every day. The feeding temperature was kept at 22° C. and the humidity was 55-65%. They were raised for one week for acclimatization. According to a random grouping method, the animals were divided into a model control group (normal saline), a Jinyintai control group (40 IU/cm^2, Shenzhen Watsin Genetech Ltd.) and a test polypeptide treatment group (40 μg/cm^2), with 6 animals in each group. After the rats were successfully anesthetized by intraperitoneal injection of 3% pentobarbital sodium, the hair within 1 cm around the edge of the wound was cut off, and the wound area was disinfected first with iodophor and then with 75% alcohol locally. A round full-thickness skin wound of 1.5 cm×1.5 cm (i.e., 1.5 cm in diameter) was made near the neck at 4 cm down to the back from the middle of the connecting line of the ears, with the spine as the midline. It went deep into the muscle layer, forming an animal model of acute mechanical injury. After modeling, the rats were raised in individual cages with the wounds exposed. During dressing replacement, the rats were all first debrided with iodophor, and then, the wound was washed with sterile normal saline and wiped dry. Except the model group, the wounds of the rats in the other groups were locally coated with 40 μL of the corresponding drug solution once daily. On days 0, 5, 10 and 14 of administration, the wound images of the rats in each group were taken, and the wound area was calculated by means of an image analysis software (Image J). According to the formula, the wound healing rate was obtained.

RSC96 cells = experiment: Proliferation of RSC96 cells (CCK-8); assay type: cell-based; details: 0.2, 0.4 and 0.8 ug/ml; 48 h; 0% serum
Experimental: Glial cells (RSC96 cells) were adjusted to a concentration of 1.0×10^5 to 5.0×10^5/mL for passaging and cultured at 37° C. and 5% CO2 for 24-36 h for biological activity detection. The cells were digested by trypsin, collected, prepared to a concentration of 5×10^4/mL with a serum-free medium, inoculated into a 96-well cell culture plate, with 100 μL per well, i.e., 5000 cells/well, and cultured overnight at 37° C. and 5% CO2. The polypeptide compound of the present invention was prepared to test concentrations (0.2 ug/ml, 0.4 ug/ml, and 0.8 ug/ml) with 0% serum culture medium as experimental groups, and an equal amount of 0% serum drug-free culture medium was added to the control group. They were added to 4 duplicate wells, and the resultants were incubated at 37° C. and 5% CO2 for 48 h. Detection of the proliferation of cells using CCK-8: the old culture medium was removed, and a serum-free medium containing 10% CCK-8 was added to each well. After incubation in an incubator for 2 h, the absorbance at 450 nm was measured by a microplate reader.

Cb/Ct range (FGFR1) | Sequence | effect on proliferation of HaCaT cells (HaCaT cells) | promoting wound healing (in words) [1] | wound healing rate, 5 days [1] | wound healing rate, 10 days [1] | wound healing rate, 14 days [1] | effect on proliferation of RSC96 cells (RSC96 cells)
1.0-3 | AAVLDKLE [Compound 68] | proliferation-promoting effect | trend of promoting wound healing | 29.26 ± 6.46 | 60.97 ± 2.87 | 88.42 ± 4.79 | significant proliferation promoting effects
1.0-3 | SMQASLEAEAKGKAE [Compound 1] | proliferation-promoting effect | trend of promoting wound healing | 31.68 ± 3.48 | 63.20 ± 3.87 | 91.43 ± 2.87 | significant proliferation promoting effects; also recorded: proliferation-promoting effect
1.0-3 | VDAAVLEKLE [Compound 67] | proliferation-promoting effects | trend of promoting wound healing | 30.40 ± 3.35 | 61.42 ± 5.73 | 90.87 ± 3.94 | proliferation-promoting effect
